Experimental data as given in patent publication US11596623B2, “Methods for treating virus infection or proliferation” (HOWARD UNIVERSITY, priority 2018, dated 2023).
Read-outs that look alike come from different tables or passages of the source.

Key:
HEp-2 cells = assay: Trypan blue exclusion cell viability; assay type: cell-based; settings: 24-hour treatment
Experimental: In order to assess whether the compounds are producing any toxicity that can led to the cell deaths, we evaluated the cell viability by the trypan blue exclusion method. As long-term inhibition of RACK1 expression has been reported to cell cycle arrest, we limited our experimental treatments to 24 h and evaluated the cell viability of almost full confluent cells after 24 h of compound treatment.
In table 2, the viability of cells was measured with Trypan blue exclusion assay in a Cellometer (Nexcelom, Lawrence, Mass.). The percentage survival of the compound treated cells was evaluated along with the DMSO treated cells. The values represent the mean±SE of three separate well based replicates.

HSV1-Luc (R8411) = assay: HSV1-Luc bioluminescence luciferase assay in HEp-2 cells; assay type: cell-based, HSV-1; parameters: HSV-1 proliferation (luciferase signal): dose or concentration left out as unconfirmed
Experimental: (A) Hep-2 cells were incubated with the indicated compounds in the presence of HSV1-Luc virus at a concentration of 4×10^6 pfu/ml media. (B) Quantification of the luciferase signal from the samples in panel (A). Signals from three replicates from two separate experiments were combined to generate the average and the standard error bar.
(§1) To 80-90% confluent HEp-2 cells, HSV-1-Luc (R8411) are added at a concentration of 2×10e^6 pfu/ml along with indicated concentration of inhibitor compounds. After the described incubation period, luciferase activity is evaluated from bioluminescence images acquired by a Perkin Elmer IVIS Spectrum Imaging system immediately after adding luciferase substrate (D-luciferin, Gold Bio Technology) at a concentration of 400 μg/mL in medium. Bioluminescence intensity in different wells is quantified in units of photons per second per centimetre squared per steradian (p/s/cm^2/sr) by drawing a polygonal region of interest over the signals in images using Living Image 3.0 software (Caliper Life Sciences).
as §1, with “cells, HSV1-Luc” for “cells, HSV-1-Luc”, “(R8411) was” for “(R8411) are”, “activity was” for “activity is”, “wells was” for “wells is”, “per centimeter” for “per centimetre”
To visualize the effect of the drugs on the proliferation of HSV-1, a luciferase tagged HSV-1 F strain expressing luciferase (R8411 mutant) under the control of ICP27 promoter was obtained [Horsburgh B C, Hubinette M M, Tufaro F. Genetic manipulation of herpes simplex virus using bacterial artificial chromosomes. Methods Enzymol. 1999; 306:337-52]. […] The same samples after incubation of 48 h were used to assay for HSV-1 ICP0 and RACK1 protein expression (B of FIG. 5). Depletion of RACK1 by the compounds correlated with the depletion of the viral ICP0 protein confirming earlier results shown in B of FIG. 3.

IRES (β-Globin) = assay: Dual-luciferase reporter assay, β-Globin control construct; assay type: cell-based
Experimental: Dual-luciferase reporter constructs were generously provided from (Plank et al., 2013) and (Carvajal et al., 2016). In the plasmid constructs, renilla luciferase (Rluc) translation is cap-dependent, while the firefly luciferase (Flue) translation depends on HIV-1 IRES. The Fluc/Rluc ratio was measured in the presence or the absence of the compounds in HEK293T cells transfected with the dual-luciferase plasmid bearing either Beta-globin, HCV, HIV-1 gag, EMVC or HIV-1 ladder sequences. Cells get transfected with the plasmids using Lipofectamine 3000 Reagent, from Thermo Fisher Scientific. Then treated with RACK1 inhibitors and its analogs (SD-29, and SD-29-14) at different concentrations; 1 μM, 10 μM, and […]. Moreover, the cells were treated with Dimethyl sulfoxide (DMSO) as a vehicle control or left untreated. Luc-Pair™ Duo-Luciferase Assay Kit 2.0 Kit (Genecopoeia) was used to measure the luciferase activity. HEK293T cells were grown to reach no more than 90% confluent at the desired time of lysate preparation.
For measuring Fluc/Rluc ratio and bioluminescence, Both Renilla and Firefly substrates were added to the same wells containing respective plasmid constructs. After the described incubation period, luciferase activity was evaluated from bioluminescence images acquired by a Perkin Elmer IVIS Spectrum Imaging system immediately after adding luciferase substrates. The Spectral Un-mixing options integrated in the software was used to un-mix the respective luminescence from Renilla and Firefly. Bioluminescence intensity in each well was quantified in units of photons per second per centimeter squared per steradian (p/s/cm^2/sr) by drawing a polygonal region of interest over the signals in images using Living Image 3.0 software (Caliper Life Sciences).
Dual-luciferase reporter constructs were used to determine if the drugs targeting RACK1 affect IRES-mediated translation. Renilla luciferase (Rluc) translation dependent on cap and the firefly luciferase (Fluc) translation dependent on HIV-1 IRES were utilized. The Fluc/Rluc ratio was measured in the presence or the absence of the compounds in the HEK293T cells transfected with the dual-luciferase plasmid bearing the predicted IRES from HIV-1 driving a firefly luciferase reporter gene and a cap dependent renilla luciferase from the same construct. As a control, HCV IRES is used within the dual luciferase construct (instead of HIV-1) as a positive control as HCV is known to use IRES solely for translating its transcripts, while Beta-globin plasmid was used as a negative control. The dual-luciferase reporters, as used here, are previously reported where HIV-1 IRES were reported (Plank, T. D., J. T. Whitehurst, and J. S. Kieft, Cell type specificity and structural determinants of IRES activity from the 5′ leaders of different HIV-1 transcripts. Nucleic Acids Res, 2013. 41(13): p. 6698-714; Carvajal, F., et al., Structural domains within the HIV-1 mRNA and the ribosomal protein S25 influence cap-independent translation initiation. FEBS J, 2016. 283(13): p. 2508-27.) The cells were transfected with the plasmids using Lipofectamine, then treated with RACK1 inhibitors (SD-29 and SD29-14) at different concentrations (1, 10, and 50 μM). Control cells were treated with DMSO or left untreated. SV40 promoter produces a capped and poly-adenylated dicistronic message. Translation of the upstream cistron (renilla luciferase, RLUC) is cap dependent, whereas translation of the downstream cistron (firefly luciferase, FLUC) occurs cap independently. The dual luciferase constructs are depicted in FIG. 1A. IRES activity is measured by calculating the ratio of FLUC to RLUC light production (RLUs) (Plank et al., 2013).

SMILES	HEp-2 Cell viability, Mean (HEp-2 cells; 10 μM) [%]	HEp-2 Cell viability, Mean (HEp-2 cells; 100 μM) [%]	HSV-1 proliferation (luciferase signal) (HSV1-Luc (R8411))	efficacy compared with acyclovir (HSV1-Luc (R8411); HSV1-Luc, acyclovir 10 μM)	HSV-1 proliferation (luciferase signal) (HSV1-Luc (R8411); co-treatment of compound and virus, dose series)	concentration from which inhibition of HSV-1 (HSV1-Luc) proliferation starts (HSV1-Luc (R8411); in vitro, luciferase signal) [µM]	efficacy relative to SD-29 (HSV1-Luc (R8411); starting concentration, HSV-1 luciferase signal) [times]	FLUC (IRES (β-Globin); 1 μM) [p/s/cm^2/sr]	FLUC/RLUC Ratio (IRES (β-Globin); 1 μM)	FLUC (IRES (β-Globin); 10 μM) [p/s/cm^2/sr]	FLUC/RLUC Ratio (IRES (β-Globin); 10 μM)	RLUC (IRES (β-Globin); 10 μM) [p/s/cm^2/sr]	FLUC (IRES (β-Globin); 50 μM) [p/s/cm^2/sr]	FLUC/RLUC Ratio (IRES (β-Globin); 50 μM)	RLUC (IRES (β-Globin); 50 μM) [p/s/cm^2/sr]	RLUC (IRES (β-Globin); 1 μM) [p/s/cm^2/sr]
Nn1c(S)nnc1-c1cc(Cl)cc(Cl)c1 [SD29-14]	97.5	93.7	significantly inhibited the HSV-1 proliferation	slightly higher level	strong inhibition of HSV-1 proliferation in a dose dependent manner	1	100	2.21E+04	0.067 ± 0.002	2.72E+04	0.062 ± 0.003	4.39E+05	1.74E+04	0.067 ± 0.004	2.62E+05	–
Nn1c(S)nnc1-c1ccc(F)cc1 [SD-29]	94.0	92.7	much less efficacy	–	–	–	–	4.02E+04	0.068 ± 0.002	3.52E+04	0.074 ± 0.006	4.70E+05	3.74E+04	0.093 ± 0.004	4.01E+05	5.82E+05
